Laboratory results published in PubChem BioAssay (NCI).
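1) Cells in 96-well plates. 2) Compound, 48 h, 5 concentrations. 3) Linear interpolation between surrounding doses. 4) Unreached endpoint = highest concentration. The concentration for 50% growth inhibition is given as GI50. TGI: total growth inhibition.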

Key:
Assay in all cases: growth of human tumour cells (NCI), 48 h
OVCAR-3 ovarian = tested on: OVCAR-3 ovarian
HOP-92 NSCLC = tested on: HOP-92 NSCLC
CCRF-CEM leukemia = tested on: CCRF-CEM leukemia
SW-620 colon = tested on: SW-620 colon
NCI-H460 lung = tested on: NCI-H460 lung
A498 renal = tested on: A498 renal
M14 melanoma = tested on: M14 melanoma
BT-549 breast = tested on: BT-549 breast
HS 578T breast = tested on: HS 578T breast
TK-10 renal = tested on: TK-10 renal
RXF 393 renal = tested on: RXF 393 renal
NCI-H226 lung = tested on: NCI-H226 lung
NCI-H522 lung = tested on: NCI-H522 lung
NCI/ADR-RES ovarian = tested on: NCI/ADR-RES ovarian
U251 CNS = tested on: U251 CNS
PC-3 prostate = tested on: PC-3 prostate
K-562 leukemia = tested on: K-562 leukemia
SR leukemia = tested on: SR leukemia
SF-295 CNS = tested on: SF-295 CNS
HCC-2998 colon = tested on: HCC-2998 colon
MDA-MB-435 = tested on: MDA-MB-435
OVCAR-4 ovarian = tested on: OVCAR-4 ovarian
A549 NSCLC = tested on: A549 NSCLC
HCT-15 colon = tested on: HCT-15 colon
UO-31 renal = tested on: UO-31 renal
EKVX NSCLC = tested on: EKVX NSCLC
LOX IMVI melanoma = tested on: LOX IMVI melanoma
NCI-H23 lung = tested on: NCI-H23 lung
T-47D breast = tested on: T-47D breast
786-0 renal = tested on: 786-0 renal
KM12 colon = tested on: KM12 colon
ACHN renal = tested on: ACHN renal
SK-MEL-5 melanoma = tested on: SK-MEL-5 melanoma
HCT-116 colon = tested on: HCT-116 colon
SK-OV-3 ovarian = tested on: SK-OV-3 ovarian
UACC-257 melanoma = tested on: UACC-257 melanoma
MDA-MB-231 breast = tested on: MDA-MB-231 breast
UACC-62 melanoma = tested on: UACC-62 melanoma
MOLT-4 leukemia = tested on: MOLT-4 leukemia
SF-539 CNS = tested on: SF-539 CNS
MCF7 breast = tested on: MCF7 breast
SK-MEL-28 melanoma = tested on: SK-MEL-28 melanoma
HL-60(TB) leukemia = tested on: HL-60(TB) leukemia
COLO 205 colon = tested on: COLO 205 colon
OVCAR-8 ovarian = tested on: OVCAR-8 ovarian
HOP-62 NSCLC = tested on: HOP-62 NSCLC
MALME-3M melanoma = tested on: MALME-3M melanoma
SK-MEL-2 melanoma = tested on: SK-MEL-2 melanoma
SN12C renal = tested on: SN12C renal
CAKI-1 renal = tested on: CAKI-1 renal
RPMI-8226 leukemia = tested on: RPMI-8226 leukemia
SNB-75 CNS = tested on: SNB-75 CNS
SNB-19 CNS = tested on: SNB-19 CNS
SF-268 CNS = tested on: SF-268 CNS
IGROV1 ovarian = tested on: IGROV1 ovarian
HT29 colon = tested on: HT29 colon
OVCAR-5 ovarian = tested on: OVCAR-5 ovarian
DU-145 prostate = tested on: DU-145 prostate

Molecule `COc1ccc2[nH]c3c4[nH]c5ccc(OC)cc5c4c4c(c3c2c1)C(=O)NC4=O` has a GI50 (OVCAR-3 ovarian) of over 11.2 µM, a TGI (OVCAR-3 ovarian) of over 25 µM and a GI50 (HOP-92 NSCLC) of over 25 µM. For the same molecule, the TGI (HOP-92 NSCLC) was over 25 µM, the GI50 (CCRF-CEM leukemia) was 0.757 µM and the TGI (CCRF-CEM leukemia) was over 25 µM. The GI50 (SW-620 colon) was over 25 µM, the TGI (SW-620 colon) was over 25 µM and the GI50 (NCI-H460 lung) was over 10.3 µM. For the same molecule, the TGI (NCI-H460 lung) was over 25 µM, the GI50 (A498 renal) was 7.36 µM and the TGI (A498 renal) was over 25 µM. The GI50 (M14 melanoma) was over 13.1 µM, the TGI (M14 melanoma) was over 25 µM and the GI50 (BT-549 breast) was over 9.4 µM. The TGI (BT-549 breast) was over 25 µM, the GI50 (HS 578T breast) was 1.35 µM and the TGI (HS 578T breast) was over 25 µM. It also gave a GI50 (TK-10 renal) of over 7.63 µM, a TGI (TK-10 renal) of over 25 µM and a TGI (RXF 393 renal) of over 15.4 µM. The GI50 (NCI-H226 lung) was over 25 µM, the TGI (NCI-H226 lung) was over 25 µM and the GI50 (NCI-H522 lung) was 2.32 µM. The TGI (NCI-H522 lung) was over 25 µM, the GI50 (NCI/ADR-RES ovarian) was over 25 µM and the TGI (NCI/ADR-RES ovarian) was over 25 µM. The GI50 (U251 CNS) was over 8.42 µM, the TGI (U251 CNS) was over 25 µM and the GI50 (PC-3 prostate) was over 15.7 µM. For the same molecule, the TGI (PC-3 prostate) was over 25 µM, the GI50 (K-562 leukemia) was over 6.63 µM and the TGI (K-562 leukemia) was over 25 µM. The GI50 (SR leukemia) was 1.29 µM, the TGI (SR leukemia) was over 25 µM and the GI50 (SF-295 CNS) was over 15.7 µM. It also gave a TGI (SF-295 CNS) of over 25 µM, a GI50 (HCC-2998 colon) of over 25 µM and a TGI (HCC-2998 colon) of over 25 µM. It also gave a GI50 (MDA-MB-435) of over 12.6 µM, a TGI (MDA-MB-435) of over 25 µM and a GI50 (OVCAR-4 ovarian) of over 25 µM. It also gave a TGI (OVCAR-4 ovarian) of over 25 µM, a GI50 (A549 NSCLC) of over 9.75 µM and a TGI (A549 NSCLC) of over 25 µM. For the same molecule, the GI50 (HCT-15 colon) was over 14.3 µM, the TGI (HCT-15 colon) was over 25 µM and the GI50 (UO-31 renal) was 0.654 µM. For the same molecule, the TGI (UO-31 renal) was over 25 µM, the GI50 (EKVX NSCLC) was over 25 µM and the TGI (EKVX NSCLC) was over 25 µM. For the same molecule, the GI50 (LOX IMVI melanoma) was over 13.1 µM, the TGI (LOX IMVI melanoma) was over 25 µM and the GI50 (NCI-H23 lung) was over 14.4 µM. For the same molecule, the TGI (NCI-H23 lung) was over 25 µM, the GI50 (T-47D breast) was over 25 µM and the TGI (T-47D breast) was over 25 µM. The GI50 (786-0 renal) was over 12.9 µM, the TGI (786-0 renal) was over 25 µM and the GI50 (KM12 colon) was 1.76 µM. The TGI (KM12 colon) was over 25 µM, the GI50 (ACHN renal) was over 6.71 µM and the TGI (ACHN renal) was over 25 µM. For the same molecule, the GI50 (SK-MEL-5 melanoma) was over 22 µM, the TGI (SK-MEL-5 melanoma) was over 25 µM and the GI50 (HCT-116 colon) was over 11 µM. The TGI (HCT-116 colon) was over 25 µM, the GI50 (SK-OV-3 ovarian) was over 25 µM and the TGI (SK-OV-3 ovarian) was over 25 µM. The GI50 (UACC-257 melanoma) was over 25 µM, the TGI (UACC-257 melanoma) was over 25 µM and the GI50 (MDA-MB-231 breast) was over 25 µM. It also gave a TGI (MDA-MB-231 breast) of over 25 µM, a GI50 (UACC-62 melanoma) of over 25 µM and a TGI (UACC-62 melanoma) of over 25 µM. It also gave a GI50 (MOLT-4 leukemia) of over 10.3 µM, a TGI (MOLT-4 leukemia) of over 25 µM and a GI50 (SF-539 CNS) of 1.31 µM. The TGI (SF-539 CNS) was over 17 µM, the GI50 (MCF7 breast) was over 25 µM and the TGI (MCF7 breast) was over 25 µM. The GI50 (SK-MEL-28 melanoma) was over 25 µM, the TGI (SK-MEL-28 melanoma) was over 25 µM and the GI50 (HL-60(TB) leukemia) was over 21.1 µM. It also gave a TGI (HL-60(TB) leukemia) of over 25 µM, a GI50 (COLO 205 colon) of over 25 µM and a TGI (COLO 205 colon) of over 25 µM. For the same molecule, the GI50 (OVCAR-8 ovarian) was over 13.2 µM, the TGI (OVCAR-8 ovarian) was over 25 µM and the GI50 (HOP-62 NSCLC) was over 25 µM. The TGI (HOP-62 NSCLC) was over 25 µM, the GI50 (MALME-3M melanoma) was 12.4 µM and the TGI (MALME-3M melanoma) was over 25 µM. For the same molecule, the GI50 (SK-MEL-2 melanoma) was 12.2 µM, the TGI (SK-MEL-2 melanoma) was over 25 µM and the GI50 (SN12C renal) was 1.19 µM. For the same molecule, the TGI (SN12C renal) was over 25 µM, the GI50 (CAKI-1 renal) was 1.77 µM and the TGI (CAKI-1 renal) was over 25 µM. For the same molecule, the GI50 (RPMI-8226 leukemia) was 0.998 µM, the TGI (RPMI-8226 leukemia) was over 25 µM and the GI50 (SNB-75 CNS) was over 13.2 µM. It also gave a TGI (SNB-75 CNS) of over 25 µM, a GI50 (SNB-19 CNS) of over 25 µM and a TGI (SNB-19 CNS) of over 25 µM. The GI50 (SF-268 CNS) was over 22 µM, the TGI (SF-268 CNS) was over 25 µM and the GI50 (IGROV1 ovarian) was over 25 µM. It also gave a TGI (IGROV1 ovarian) of over 25 µM, a GI50 (HT29 colon) of over 25 µM and a TGI (HT29 colon) of over 25 µM. It also gave a GI50 (OVCAR-5 ovarian) of over 25 µM, a TGI (OVCAR-5 ovarian) of over 25 µM and a GI50 (DU-145 prostate) of over 15.1 µM. The TGI (DU-145 prostate) was over 25 µM.
